The assay has as its system CD2F1 mice, L1210 leukemia ip, survival T/C. Kind of assay: NCI In Vivo Anticancer Drug Screen. Data for tumor model L1210 Leukemia (intraperitoneal) in CD2F1 (CDF1) mice. Particulars: higher = longer survival. The method in brief:
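Each value reflects a quotient of treated over vehicle control outcomes in mice with a transplanted tumor.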

[1] abbreviates: endpoint: mean survival time, dose: 25.0 mg/kg/injection, schedule: Q01DX009 (ip), vehicle: saline with Tween-80.
[2] abbreviates: endpoint: mean survival time, dose: 100.0 mg/kg/injection, schedule: Q01DX009 (ip), vehicle: saline with Tween-80.
Setting [3] is: endpoint: mean survival time, dose: 100.0 mg/kg/injection, schedule: Q04DX003 (ip), vehicle: saline with Tween-80.
Where [4] appears, read: endpoint: mean survival time, dose: 200.0 mg/kg/injection, schedule: Q04DX003 (ip), vehicle: saline with Tween-80.
The mark [5] stands for this setting: endpoint: mean survival time, dose: 25.0 mg/kg/injection, schedule: Q04DX003 (ip), vehicle: other.
Setting [6] is: endpoint: mean survival time, dose: 400.0 mg/kg/injection, schedule: Q04DX003 (ip), vehicle: saline with Tween-80.
Setting [7] is: endpoint: mean survival time, dose: 200.0 mg/kg/injection, schedule: Q01DX009 (ip), vehicle: saline with Tween-80.
[8] abbreviates: endpoint: mean survival time, dose: 6.25 mg/kg/injection, schedule: Q01DX009 (ip), vehicle: saline with Tween-80.
Setting [9] is: endpoint: mean survival time, dose: 12.5 mg/kg/injection, schedule: Q01DX009 (ip), vehicle: saline with Tween-80.

Toxic doses and inconclusive results are not listed.

This is an account of results in PubChem BioAssay AID256 (DTP/NCI, 2004).

Consider `NC(=N\O)/C(N)=N/O.[Cl][Pd][Cl]`, for which the T/C is, setting by setting: (endpoint: median survival time, dose: 3.12 mg/kg/injection, schedule: Q04DX003 (ip), vehicle: saline) 100 % of control; (endpoint: median survival time, dose: 6.25 mg/kg/injection, schedule: Q04DX003 (ip), vehicle: saline) 100 % of control; (endpoint: median survival time, dose: 12.5 mg/kg/injection, schedule: Q04DX003 (ip), vehicle: saline) 103 % of control; (endpoint: median survival time, dose: 25.0 mg/kg/injection, schedule: Q04DX003 (ip), vehicle: saline) 100 % of control; (endpoint: median survival time, dose: 50.0 mg/kg/injection, schedule: Q04DX003 (ip), vehicle: saline) 97 % of control; (endpoint: median survival time, dose: 100.0 mg/kg/injection, schedule: Q04DX003 (ip), vehicle: saline) 98 % of control. The T/C (endpoint: median survival time, dose: 200.0 mg/kg/injection, schedule: Q04DX003 (ip), vehicle: saline) is 97 % of control.
Consider `C#CCCCN1CCC2(CC1)C(=O)N(C(=O)N(C)C)CN2c1ccccc1`, for which the T/C by setting is: under setting [1], 100 % of control; (endpoint: mean survival time, dose: 50.0 mg/kg/injection, schedule: Q01DX009 (ip), vehicle: saline with Tween-80) 96 % of control; under setting [2], 97 % of control.
With `C[n+]1c(-c2cc(Cl)cc(Cl)c2)c2cc(N)ccc2c2ccccc21`, the T/C (endpoint: mean survival time, dose: 6.25 mg/kg/injection, schedule: Q01DX009 (ip), vehicle: water) was 108 % of control; the T/C (endpoint: mean survival time, dose: 12.5 mg/kg/injection, schedule: Q01DX009 (ip), vehicle: water) is 108 % of control; the T/C (endpoint: mean survival time, dose: 25.0 mg/kg/injection, schedule: Q01DX009 (ip), vehicle: water) was 104 % of control.
`Cc1ccc(S(=O)(=O)OCC2OC3(COS(=O)(=O)c4ccc(C)cc4)OC(C)(C)OC3C2O)cc1` (configuration not stated): the T/C was 93 % of control under setting [3] and 101 % of control under setting [4].
For the compound `CC12CCC(O)CC1CCC1C2CCC2(C)C(C3=CC(=O)OC3)CCC12` (configuration not stated), the T/C is 96 % of control (endpoint: mean survival time, dose: 50.0 mg/kg/injection, schedule: Q01DX001 (ip), vehicle: saline); 98 % of control (endpoint: mean survival time, dose: 100.0 mg/kg/injection, schedule: Q01DX001 (ip), vehicle: saline); 98 % of control (endpoint: mean survival time, dose: 200.0 mg/kg/injection, schedule: Q01DX001 (ip), vehicle: saline).
Turning to `Cc1cccc(C)c1OC(=O)Cl`, the T/C by setting is: (endpoint: mean survival time, dose: 5.0 mg/kg/injection, schedule: Q01DX001 (ip), vehicle: saline) 98 % of control; (endpoint: mean survival time, dose: 10.0 mg/kg/injection, schedule: Q01DX001 (ip), vehicle: saline) 97 % of control; (endpoint: mean survival time, dose: 20.0 mg/kg/injection, schedule: Q01DX001 (ip), vehicle: saline) 97 % of control; (endpoint: mean survival time, dose: 40.0 mg/kg/injection, schedule: Q01DX001 (ip), vehicle: saline) 97 % of control.
For `CNN(C)N=Nc1ccc(C(N)=O)cc1`, the T/C runs as follows: (endpoint: mean survival time, dose: 19.75 mg/kg/injection, schedule: Q01DX009 (ip), vehicle: Klucel (hydroxypropylcellulose) (HPC)) 110 % of control; (endpoint: mean survival time, dose: 39.5 mg/kg/injection, schedule: Q01DX009 (ip), vehicle: Klucel (hydroxypropylcellulose) (HPC)) 118 % of control; (endpoint: mean survival time, dose: 79.0 mg/kg/injection, schedule: Q01DX009 (ip), vehicle: Klucel (hydroxypropylcellulose) (HPC)) 93 % of control.
Take `NCCCc1ccccc1`: the T/C is 103 % of control (endpoint: mean survival time, dose: 100.0 mg/kg/injection, schedule: Q01DX009 (ip), vehicle: saline) and 90 % of control (endpoint: mean survival time, dose: 200.0 mg/kg/injection, schedule: Q01DX009 (ip), vehicle: saline).
`CCCCCCCCCCCCCCCCCCCC`: the T/C is 90 % of control under setting [5]; 91 % of control (endpoint: mean survival time, dose: 50.0 mg/kg/injection, schedule: Q04DX003 (ip), vehicle: other); 88 % of control (endpoint: mean survival time, dose: 100.0 mg/kg/injection, schedule: Q04DX003 (ip), vehicle: other).
`Nc1ccc(S(=O)(=O)N(CCO)CCO)cc1[N+](=O)[O-]`: the T/C by setting is: under setting [3], 96 % of control; under setting [4], 98 % of control; under setting [6], 95 % of control.
For `[O-][n+]1c(Cl)nc(Cl)c(Cl)c1C(Cl)(Cl)Cl`, the T/C reads like this: (endpoint: mean survival time, dose: 12.5 mg/kg/injection, schedule: Q04DX003 (ip), vehicle: other) 111 % of control; under setting [5], 103 % of control.
In the case of `CN(C)c1ccc(/C=N/NC(=O)COc2ccccc2)cc1`, the T/C is, setting by setting: under setting [2], 91 % of control; under setting [7], 89 % of control.
Turning to `Cc1ccccc1C(C)NC1=NCCO1` (configuration not stated), the T/C under setting [8] is 90 % of control; the T/C (endpoint: mean survival time, dose: 6.25 mg/kg/injection, schedule: Q04DX003 (ip), vehicle: saline with Tween-80) was 96 % of control; the T/C under setting [9] was 96 % of control; the T/C (endpoint: mean survival time, dose: 12.5 mg/kg/injection, schedule: Q04DX003 (ip), vehicle: saline with Tween-80) was 95 % of control; the T/C under setting [1] was 97 % of control; the T/C (endpoint: mean survival time, dose: 25.0 mg/kg/injection, schedule: Q04DX003 (ip), vehicle: saline with Tween-80) is 93 % of control.
As to `CCCCn1c(C)nc2c([N+](=O)[O-])cc(C(F)(F)F)cc21`, the T/C is 95 % of control (endpoint: mean survival time, dose: 50.0 mg/kg/injection, schedule: Q01DX001 (ip), vehicle: saline with Tween-80); 98 % of control (endpoint: mean survival time, dose: 100.0 mg/kg/injection, schedule: Q01DX001 (ip), vehicle: saline with Tween-80); 95 % of control (endpoint: mean survival time, dose: 200.0 mg/kg/injection, schedule: Q01DX001 (ip), vehicle: saline with Tween-80).
Take `CCCCCCC#CC(=O)OC`: the T/C under setting [2] was 101 % of control; the T/C under setting [3] is 96 % of control; the T/C under setting [7] was 101 % of control; the T/C under setting [4] is 102 % of control; the T/C under setting [6] is 97 % of control.
As to `COC(=O)C1(C)CCCC2(C)C1CCC13OCC(CC21)C1(C(C)C)OC31` (configuration not stated), the T/C was 101 % of control under setting [3], 100 % of control under setting [4] and 95 % of control under setting [6].
For the compound `COC(=O)c1ccc(O)c([N+](=O)[O-])c1`, the T/C under setting [3] was 104 % of control and the T/C under setting [4] was 93 % of control.
For `C=CC(C)n1c(=O)c2c(ncn2C)n(C)c1=O` (configuration not stated), the T/C reads like this: (endpoint: mean survival time, dose: 0.78 mg/kg/injection, schedule: Q04DX003 (ip), vehicle: saline with Tween-80) 102 % of control; (endpoint: mean survival time, dose: 1.56 mg/kg/injection, schedule: Q04DX003 (ip), vehicle: saline with Tween-80) 102 % of control; (endpoint: mean survival time, dose: 3.12 mg/kg/injection, schedule: Q04DX003 (ip), vehicle: saline with Tween-80) 105 % of control.
Turning to `O=[N+]([O-])c1ccc(Sc2ncnc3nc[nH]c23)c([N+](=O)[O-])c1`, the T/C reads like this: (endpoint: mean survival time, dose: 16.6 mg/kg/injection, schedule: Q01DX005 (ip), vehicle: other) 154 % of control; (endpoint: mean survival time, dose: 25.0 mg/kg/injection, schedule: Q01DX005 (ip), vehicle: other) 167 % of control; (endpoint: mean survival time, dose: 37.5 mg/kg/injection, schedule: Q01DX005 (ip), vehicle: other) 162 % of control; (endpoint: mean survival time, dose: 56.3 mg/kg/injection, schedule: Q01DX005 (ip), vehicle: other) 167 % of control.
As for `CCCC(=O)Nc1cc2c3c(c1)CCCN3CCC2`, the T/C was 97 % of control under setting [8], 97 % of control under setting [9] and 98 % of control under setting [1].
For `N#Cc1cn(C2OC(CO)C(O)C2O)c2ncn3ncnc3c12` (configuration not stated), the T/C reads like this: (endpoint: mean survival time, dose: 3.13 mg/kg/injection, schedule: Q01DX005 (ip), vehicle: water) 102 % of control; (endpoint: mean survival time, dose: 6.25 mg/kg/injection, schedule: Q01DX005 (ip), vehicle: water) 102 % of control; (endpoint: mean survival time, dose: 12.5 mg/kg/injection, schedule: Q01DX005 (ip), vehicle: distilled water + Tween-80) 122 % of control; (endpoint: mean survival time, dose: 12.5 mg/kg/injection, schedule: Q01DX005 (ip), vehicle: water) 112 % of control; (endpoint: mean survival time, dose: 25.0 mg/kg/injection, schedule: Q01DX005 (ip), vehicle: distilled water + Tween-80) 112 % of control; (endpoint: mean survival time, dose: 25.0 mg/kg/injection, schedule: Q01DX005 (ip), vehicle: water) 120 % of control. Moreover, the T/C (endpoint: mean survival time, dose: 50.0 mg/kg/injection, schedule: Q01DX005 (ip), vehicle: distilled water + Tween-80) is 116 % of control and the T/C (endpoint: mean survival time, dose: 100.0 mg/kg/injection, schedule: Q01DX005 (ip), vehicle: distilled water + Tween-80) is 106 % of control.
On to `CS(=O)CCO` (configuration not stated), for which the T/C is 93 % of control (endpoint: mean survival time, dose: 100.0 mg/kg/injection, schedule: Q04DX002 (ip), vehicle: saline); 107 % of control (endpoint: mean survival time, dose: 200.0 mg/kg/injection, schedule: Q04DX002 (ip), vehicle: saline); 104 % of control (endpoint: mean survival time, dose: 400.0 mg/kg/injection, schedule: Q04DX002 (ip), vehicle: saline).
